In BindingDB's records for doi:10.1016/S1074-5521(99)80048-9 (University of California Berkeley, 1999) one finds IC50 data, which are given here for 47 compounds.

Sequence of Cyclin-dependent kinase 1 (P06493 whole entry): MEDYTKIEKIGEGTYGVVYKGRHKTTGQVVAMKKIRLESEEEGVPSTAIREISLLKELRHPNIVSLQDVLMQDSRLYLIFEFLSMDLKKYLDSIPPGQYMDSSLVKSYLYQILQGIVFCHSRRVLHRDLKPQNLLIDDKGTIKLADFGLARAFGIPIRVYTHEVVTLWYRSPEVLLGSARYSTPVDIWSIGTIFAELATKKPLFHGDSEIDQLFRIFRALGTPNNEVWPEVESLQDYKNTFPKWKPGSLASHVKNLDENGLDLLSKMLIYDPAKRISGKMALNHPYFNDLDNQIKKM

The target in the assay is Cyclin-dependent kinase 1 (Homo sapiens, UniProt P06493). The assay is described as follows: Inhibition Assay. From the text:
Inhibition assay using CDK1/cyclin B.
Broadly, the IC50 is the concentration at which inhibition is half-maximal. `CC(C)N1CNc2c(NCCC(c3ccccc3)c3ccccc3)nc(N3CCCCC3CCO)nc21` (configuration not stated) yielded a 50% inhibitory concentration (IC50) of 9000 nM.

`CC(C)[C@H](CO)Nc1nc(Nc2ccc(Br)cc2)c2c(n1)N(C(C)C)CN2` [2-(1 R-isopropyl-2-hydroxyethylamino)-9-isopropylpurine core C6-substituent, 73] had a half-inhibitory concentration (IC50) of 40 nM.

`CC(C)[C@H](CO)Nc1nc(Nc2ccccc2)c2c(n1)N(C(C)C)CN2` [2-(1 R-isopropyl-2-hydroxyethylamino)-9-isopropylpurine core C6-substituent, 78] returned an IC50 of 240 nM.

Regarding `CC(C)[C@H](CO)Nc1nc(Nc2ccc(O)c(C(=O)O)c2)c2c(n1)N(C(C)C)CN2` [2-(1 R-isopropyl-2-hydroxyethylamino)-9-isopropylpurine core C6-substituent, 94], the half-maximal inhibitory concentration (IC50) came out at 100 nM.

With `CC(C)[C@H](CO)Nc1nc(Nc2ccc(Cl)c(C(=O)O)c2)c2c(n1)N(C(C)C)CN2` [2-(1 R-isopropyl-2-hydroxyethylamino)-9-isopropylpurine core C6-substituent, 96], the 50% inhibitory concentration (IC50) turned out to be 30 nM.

`CC(C)[C@H](CO)Nc1nc(NCc2cccc(I)c2)c2c(n1)N(C(C)C)CN2` [2-(1 R-isopropyl-2-hydroxyethylamino)-9-isopropylpurine core C6-substituent, 112]: 170 nM corresponded to half-maximal inhibition (IC50).

The compound `CC(C)[C@H](CO)Nc1nc(Nc2ccc(Cl)cc2)c2c(n1)N(C(C)C)CN2` [2-(1 R-isopropyl-2-hydroxyethylamino)-9-isopropylpurine core C6-substituent, 356] came in with a 50% inhibitory concentration (IC50) of 80 nM.

`COc1ccccc1Nc1nc(NCCO)nc2c1NCN2C(C)C` [2-(2-hydroxyethylamino)-9-isopropylpurine core C6-substituents, 46] displayed a half-maximal inhibitory concentration (IC50) of 9000 nM.

The compound `CC(C)N1CNc2c(Nc3ccc4ccccc4c3)nc(NCCO)nc21` [2-(2-hydroxyethylamino)-9-isopropylpurine core C6-substituents, 47] registered a half-maximal inhibitory concentration (IC50) of 430 nM.

`CC(C)N1CNc2c(Nc3cccc(Cl)c3)nc(NCCO)nc21` [2-(2-hydroxyethylamino)-9-isopropylpurine core C6-substituents, 52] registered a 50% inhibitory concentration (IC50) of 220 nM.

Regarding `CC(C)N1CNc2c(NCc3cccc(I)c3)nc(N3CCCCC3CCO)nc21` (configuration not stated) [2-(2-hydroxyethylpiperidyl)-9-isopropylpurine core C6-substituent, 113], half-maximal inhibition (IC50) required 6000 nM.

`CC(C)N1CNc2c(NCc3ccccc3)nc(N3CCCCC3CCO)nc21` (configuration not stated) [2-(2-hydroxyethylpiperidyl)-9-isopropylpurine core C6-substituent, 212] had an IC50 of 160 nM.

The compound `CCCCNc1nc(N2CCCCC2CCO)nc2c1NCN2C(C)C` (configuration not stated) [2-(2-hydroxyethylpiperidyl)-9-isopropylpurine core C6-substituent, 219] came in with an IC50 of 1300 nM.

`CC(C)N1CNc2c(Nc3ccccc3)nc(N3CCCCC3CCO)nc21` (configuration not stated) [2-(2-hydroxyethylpiperidyl)-9-isopropylpurine core C6-substituent, 220] yielded an IC50 of 130 nM.

Compound `CC(C)N1CNc2c(NCc3cccc(C(F)(F)F)c3)nc(N3CCCCC3CCO)nc21` (configuration not stated) [2-(2-hydroxyethylpiperidyl)-9-isopropylpurine core C6-substituent, 222] returned an IC50 of 3000 nM.

Consider `CC(C)N1CNc2c(NCCNc3ccccc3)nc(N3CCCCC3CCO)nc21` (configuration not stated) [2-(2-hydroxyethylpiperidyl)-9-isopropylpurine core C6-substituent, 224], for which the IC50 was determined as 1500 nM.

Take `CC(C)N1CNc2c(NCc3ccc4ccccc4c3)nc(N3CCCCC3CCO)nc21` (configuration not stated) [2-(2-hydroxyethylpiperidyl)-9-isopropylpurine core C6-substituent, 226]: 1200 nM corresponded to half-maximal inhibition (IC50).

With `CC(C)N1CNc2c(N(CCN(C)C)Cc3ccccc3)nc(N3CCCCC3CCO)nc21` (configuration not stated) [2-(2-hydroxyethylpiperidyl)-9-isopropylpurine core C6-substituent, 227], the IC50 was greater than 10000 nM.

As for `CC(C)N1CNc2c(Nc3ccc(Cl)cc3)nc(N3CCCCC3CCO)nc21` (configuration not stated) [2-(2-hydroxyethylpiperidyl)-9-isopropylpurine core C6-substituent, 359], the 50% inhibitory concentration (IC50) was 790 nM.

As for `Cc1ccc(CN(c2nc(Nc3cccc(Cl)c3)c3c(n2)N(C(C)C)CN3)[C@@H](O)C(C)C)cc1` [2-((1 R-isopropyl)-2-hydroxyethylamino)-6-(3-chloroanilino)-9-isopropylpurine core C2-substituent, 317], the 50% inhibitory concentration (IC50) was greater than 10000 nM.

`CC(C)N1CNc2c(Nc3cccc(Cl)c3)nc(N[C@H](CO)c3ccccc3)nc21` [6-(3-chloroanilino)-9-isopropylpurine core C2-substituent, 59] gave an IC50 of 800 nM.

In turn, `CC(C)N1CNc2c(Nc3cccc(Cl)c3)nc(N[C@H](CO)C(C)(C)C)nc21` [6-(3-chloroanilino)-9-isopropylpurine core C2-substituent, 61] returned a half-inhibitory concentration (IC50) of 2300 nM.

Regarding `CCC(C)[C@@H](CO)Nc1nc(Nc2cccc(Cl)c2)c2c(n1)N(C(C)C)CN2` (some centres not stated) [6-(3-chloroanilino)-9-isopropylpurine core C2-substituent, 62], the midpoint of inhibition, the IC50, lay at 500 nM.

Compound `CC(C)N1CNc2c(Nc3cccc(Cl)c3)nc(N[C@H]3Cc4ccccc4[C@H]3O)nc21` [6-(3-chloroanilino)-9-isopropylpurine core C2-substituent, 69] returned an IC50 of 5000 nM.

On to `CC(C)N1CNc2c(Nc3cccc(Cl)c3)nc(N[C@H](CO)Cc3ccccc3)nc21` [6-(3-chloroanilino)-9-isopropylpurine core C2-substituent, 70], for which half-maximal inhibition (IC50) required 500 nM.

For `CC(C)N1CNc2c(Nc3cccc(Cl)c3)nc(N(CCO)Cc3ccccc3)nc21` [6-(3-chloroanilino)-9-isopropylpurine core C2-substituent, 302], the IC50 came to 5000 nM.

Turning to `CC(O)CN(CC(C)O)c1nc(Nc2cccc(Cl)c2)c2c(n1)N(C(C)C)CN2` (configuration not stated) [6-(3-chloroanilino)-9-isopropylpurine core C2-substituent, 305], the IC50 was 350 nM.

`CC[C@H](CO)Nc1nc(Nc2cccc(Cl)c2)c2c(n1)N(C(C)C)CN2` [6-(3-chloroanilino)-9-isopropylpurine core C2-substituent, 307] displayed an IC50 of 300 nM.

`CC(C)C[C@H](CO)Nc1nc(Nc2cccc(Cl)c2)c2c(n1)N(C(C)C)CN2` [6-(3-chloroanilino)-9-isopropylpurine core C2-substituent, 308] showed a half-inhibitory concentration (IC50) of 530 nM.

In turn, `COc1ccc(CNc2nc(N3CCCCC3CCO)nc3c2NCN3C(C)C)cc1` (configuration not stated) [6-(4-methoxybenzylamino) core C2-substituent, 10] gave an IC50 of 210 nM.

In the case of `COc1ccc(CNc2nc(N3CCN(CCO)CC3)nc3c2NCN3C(C)C)cc1` [6-(4-methoxybenzylamino) core C2-substituent, 11], it took 7000 nM to reach half-maximal inhibition (IC50).

For the compound `COc1ccc(CNc2nc(N3CCN(C)CC3)nc3c2NCN3C(C)C)cc1` [6-(4-methoxybenzylamino) core C2-substituent, 12], the IC50 was 10800 nM.

Take `CCN(CCO)c1nc(NCc2ccc(OC)cc2)c2c(n1)N(C(C)C)CN2` [6-(4-methoxybenzylamino) core C2-substituent, 13]: the IC50 is 1200 nM.

Compound `COc1ccc(CNc2nc(NCC(O)CO)nc3c2NCN3C(C)C)cc1` (configuration not stated) [6-(4-methoxybenzylamino) core C2-substituent, 15] returned an IC50 of 1300 nM.

The compound `COc1ccc(CNc2nc(N(CC(C)O)CC(C)O)nc3c2NCN3C(C)C)cc1` (configuration not stated) [6-(4-methoxybenzylamino) core C2-substituent, 16] came in with an IC50 of 240 nM.

For the compound `COc1ccc(CNc2nc(N3CCC(O)CC3)nc3c2NCN3C(C)C)cc1` [6-(4-methoxybenzylamino) core C2-substituent, 27], 6500 nM corresponded to half-maximal inhibition (IC50).

The compound `COc1ccc(CNc2nc(N[C@@H](CO)CC(C)C)nc3c2NCN3C(C)C)cc1` [6-(4-methoxybenzylamino) core C2-substituent, 36] had an IC50 of 100 nM.

Take `COc1ccc(CNc2nc(N(C)CC(O)c3ccccc3)nc3c2NCN3C(C)C)cc1` (configuration not stated) [6-(4-methoxybenzylamino) core C2-substituent, 37]: the concentration for half-maximal inhibition (IC50) is 1000 nM.

Compound `COc1ccc(CNc2nc(N3CCCCCC3)nc3c2NCN3C(C)C)cc1` [6-(4-methoxybenzylamino) core C2-substituent, 38] returned an IC50 of 4000 nM.

`COc1ccc(CNc2nc(N(CCN(C)C)Cc3ccccc3)nc3c2NCN3C(C)C)cc1` [6-(4-methoxybenzylamino) core C2-substituent, 40] returned a concentration for half-maximal inhibition (IC50) of 5000 nM.

For `COc1ccc(CNc2nc(NCC(O)CN)nc3c2NCN3C(C)C)cc1` (configuration not stated) [6-(4-methoxybenzylamino) core C2-substituent, 41], the midpoint of inhibition, the IC50, lay at 1600 nM.

`COc1ccc(CNc2nc(N(CCO)Cc3ccccc3)nc3c2NCN3C(C)C)cc1` [6-(4-methoxybenzylamino) core C2-substituent, 49] gave an IC50 of 2800 nM.

The compound `COc1ccc(CNc2nc(NCC(O)c3ccccc3)nc3c2NCN3C(C)C)cc1` (configuration not stated) [6-(4-methoxybenzylamino) core C2-substituent, 50] registered an IC50 of 2800 nM.

`COc1ccc(CNc2nc(NCCO)nc3c2NCN3C(C)C)cc1` [6-(4-methoxybenzylamino) core C2-substituent, 118] yielded an IC50 of 700 nM.

Regarding `COc1ccc(CNc2nc(NCCCO)nc3c2NCN3C(C)C)cc1` [6-(4-methoxybenzylamino) core C2-substituent, 209], inhibition was half-maximal at 1200 nM (IC50).

`COc1ccc(CNc2nc(N(CCO)CCCO)nc3c2NCN3C(C)C)cc1` [6-(4-methoxybenzylamino) core C2-substituent, 211] displayed an IC50 of 250 nM.

As for `COc1ccc(CNc2nc(NC3(CO)CCCC3)nc3c2NCN3C(C)C)cc1` [6-(4-methoxybenzylamino) core C2-substituent, 314], the concentration for half-maximal inhibition (IC50) was 450 nM.
